The record followed here is publication PMC11286772, “Structural basis of antagonist selectivity in endothelin receptors” (Cell Discovery, 2024).

Format in all cases: cell-based
One experiment addresses T1, ETA WT (Homo sapiens, UniProt P25101).
T1 construct: expressed in transfected cells; host or cells: CHO-K1
T1 sequence (P25101 21-427): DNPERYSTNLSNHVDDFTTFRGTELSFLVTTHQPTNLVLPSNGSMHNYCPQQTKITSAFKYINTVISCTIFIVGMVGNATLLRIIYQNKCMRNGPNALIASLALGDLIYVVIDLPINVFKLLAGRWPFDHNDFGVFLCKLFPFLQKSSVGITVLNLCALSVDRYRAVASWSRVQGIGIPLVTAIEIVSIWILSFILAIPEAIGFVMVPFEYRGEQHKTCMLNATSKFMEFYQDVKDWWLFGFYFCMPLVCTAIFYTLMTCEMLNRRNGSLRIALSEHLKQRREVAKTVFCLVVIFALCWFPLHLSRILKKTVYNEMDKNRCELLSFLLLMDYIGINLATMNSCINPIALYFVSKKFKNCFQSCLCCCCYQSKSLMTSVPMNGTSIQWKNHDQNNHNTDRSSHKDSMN
The experiment is described as follows: Calcium mobilization assay, antagonist mode (ET-1 stimulated), CHO-K1 cells. The procedure:
(§1) CHO-K1 cells were cultured in Ham’s F-12K (Kaighn’s) Medium (Gibco-Thermo Fisher Scientific) supplemented with 10% (v/v) fetal bovine serum (FBS; Gibco-Thermo Fisher Scientific), and 100 U/mL Penicillin-Streptomycin (Gibco-Thermo Fisher Scientific) in a humidified incubator at 37 °C with 5% CO2. Cells were seeded in 6-cm dishes overnight; when the density reached 60%–80%, the cells were transferred to F12K Medium supplemented with 10% FBS and transfected with 1.5 μg DNA encoding the ETA WT or mutants or 3 μg DNA encoding the ETB WT or mutants using TransIT2020 (Mirus Biosciences). The next day, transfected cells were harvested from the plate using Versene buffer (Gibco-Thermo Fisher Scientific) and seeded into black-sided, clear-bottomed 384-well plates (Agilent) at a density of 1,5000 cells per well. After 20 h, the 1% dFBS medium was removed, and cells were loaded with 20 μL/well of 1× Calcium 6 dye (Molecular Devices) and incubated at 37 °C for 1 h in the dark. […] All data were analyzed using GraphPad Prism 8 and the data are from at least three independent replicate experiments. All plots are shown as means ± SEM. Data were determined using one-way ANOVA followed by Dunnett’s multiple test compared with WT. The top value was normalized to 100% and the bottom value was normalized to 0% for the final presentation. Nonlinear curve fit was performed using a four-parameter logistic equation (log (agonist vs response) or log (inhibitor vs response)).
On the technique in general: A change in cytosolic calcium serves as a functional read-out for many receptors and channels.

For the next experiment, the target named is T2, ETA F161^3.28A (Homo sapiens, UniProt P25101, F161A).
T2 construct: expressed in transfected cells; host or cells: CHO-K1
T2 sequence (P25101 21-427 F161A): T1 sequence (P25101 21-427) with F141A
Put plainly: Calcium mobilization assay, antagonist mode. The procedure: as §1

Another experiment addresses T3, ETA L259^5.42A (Homo sapiens, UniProt P25101, L259A).
T3 construct: expressed in transfected cells; host or cells: CHO-K1
T3 sequence (P25101 21-427 L259A): T1 sequence (P25101 21-427) with L239A
The experiment is described as follows: Calcium mobilization assay, antagonist mode. The procedure: as §1

The next experiment has as its target T4, ETA L322^6.51A (Homo sapiens, UniProt P25101, L322A).
T4 construct: expressed in transfected cells; host or cells: CHO-K1
T4 sequence (P25101 21-427 L322A): T1 sequence (P25101 21-427) with L302A
Put plainly: Calcium mobilization assay, antagonist mode. The procedure:
as §1

Another experiment concerns the target T5, ETA R326^6.55A (Homo sapiens, UniProt P25101, R326A).
T5 construct: expressed in transfected cells; host or cells: CHO-K1
T5 sequence (P25101 21-427 R326A): T1 sequence (P25101 21-427) with R306A
The experiment is described as follows: Calcium mobilization assay, antagonist mode. The procedure:
as §1

For the next experiment, the target named is T6, ETA Y129^2.53A (Homo sapiens, UniProt P25101, Y129A).
T6 construct: expressed in transfected cells; host or cells: CHO-K1
T6 sequence (P25101 21-427 Y129A): T1 sequence (P25101 21-427) with Y109A
Put plainly: Calcium mobilization assay, antagonist mode. The procedure: as §1

The target of another experiment is T7, ETA Y129^2.53F (Homo sapiens, UniProt P25101, Y129F).
T7 construct: expressed in transfected cells; host or cells: CHO-K1
T7 sequence (P25101 21-427 Y129F): T1 sequence (P25101 21-427) with Y109F
The experiment is described as follows: Calcium mobilization assay, antagonist mode. The procedure: as §1

For a further experiment, the target named is T8, ETA Y129^2.53H (Homo sapiens, UniProt P25101, Y129H).
T8 construct: expressed in transfected cells; host or cells: CHO-K1
T8 sequence (P25101 21-427 Y129H): T1 sequence (P25101 21-427) with Y109H
Put plainly: Calcium mobilization assay, antagonist mode. The procedure:
as §1

The target of a further experiment is T9, ETA Y263^5.46A (Homo sapiens, UniProt P25101, Y263A).
T9 construct: expressed in transfected cells; host or cells: CHO-K1
T9 sequence (P25101 21-427 Y263A): T1 sequence (P25101 21-427) with Y243A
Put plainly: Calcium mobilization assay, antagonist mode. The procedure:
as §1

The next experiment has as its target T10, ETB H150^2.53Y (Homo sapiens, UniProt P24530, H150Y).
T10 construct: expressed in transfected cells; host or cells: CHO-K1
T10 sequence (P24530 27-442 H150Y): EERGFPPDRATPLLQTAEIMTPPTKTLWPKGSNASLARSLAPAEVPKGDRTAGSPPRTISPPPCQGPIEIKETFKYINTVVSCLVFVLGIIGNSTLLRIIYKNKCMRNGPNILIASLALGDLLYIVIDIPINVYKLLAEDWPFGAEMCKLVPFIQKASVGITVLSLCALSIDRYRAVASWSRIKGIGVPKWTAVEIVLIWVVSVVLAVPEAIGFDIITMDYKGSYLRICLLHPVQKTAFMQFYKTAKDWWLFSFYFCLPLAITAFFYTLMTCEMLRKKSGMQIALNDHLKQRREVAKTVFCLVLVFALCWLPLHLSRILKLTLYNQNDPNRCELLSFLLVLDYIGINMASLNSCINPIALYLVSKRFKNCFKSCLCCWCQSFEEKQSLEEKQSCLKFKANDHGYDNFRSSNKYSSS
Put plainly: Calcium mobilization assay, antagonist mode. The procedure: as §1

The target of experiment [1] is T11, ETB V177^3.28F+H150^2.53Y (Homo sapiens, UniProt P24530, H150Y/V177F).
T11 construct: expressed in transfected cells; host or cells: CHO-K1
T11 sequence (P24530 27-442 H150Y/V177F): T10 sequence (P24530 27-442 H150Y) with V151F
Put plainly: Calcium mobilization assay, antagonist mode. The procedure: as §1

[2] abbreviates: CHO-K1 cells, n = 5, read-out: IC50, inhibition activity on ETA in calcium mobilization assay.
Where [3] appears, read: read-out: pIC50±S.E.M. (converted).

Each structure is given as a SMILES string. Where a chain is given by its changes, count along the chain named. Where two headings read alike, the source gives them in different places.

Consider `CCCNS(=O)(=O)Nc1ncnc(OCCOc2ncc(Br)cn2)c1-c1ccc(Br)cc1` [macitentan, N-[5-(4-bromophenyl)-6-[2-[(5-bromo-2-pyrimidinyl)oxy]ethoxy]-4-pyrimidinyl]-N’-propylsulfamide], for which the IC50 at ETA WT (setting [2]) is 1.3 nM; at ETA WT (setting [3]), 1.17 nM; at ETA F161^3.28A it was 17.8 nM; on ETA L259^5.42A it was 0.234 µM; on ETA L322^6.51A, 347 nM; at ETA R326^6.55A it was 0.0363 µM. Also, the IC50 on ETA Y129^2.53A was 1020 nM; at ETA Y129^2.53F it was 1.2 nM; on ETA Y129^2.53H, 891 nM; at ETA Y263^5.46A, 15.5 nM.
For the molecule `COC(c1ccccc1)(c1ccccc1)[C@H](Oc1nc(C)cc(C)n1)C(=O)O` [ambrisentan], the IC50 was 0.6 nM on ETA WT (setting [2]); 0.389 nM at ETA WT (setting [3]); 89.1 nM at ETA F161^3.28A; 15.5 µM at ETA L259^5.42A; 575 nM on ETA L322^6.51A; 7.94 µM on ETA R326^6.55A. Also, the IC50 at ETA Y129^2.53A was 204 nM; on ETA Y129^2.53F, 2.34 nM; at ETA Y129^2.53H it was 575 nM; at ETA Y263^5.46A, 813 nM.
On to `COc1nc(C)cnc1NS(=O)(=O)c1cccnc1-c1ccc(-c2nnco2)cc1` [zibotentan], for which the results for the IC50 (at ETB H150^2.53Y; in [1]) were 56.2 µM and 33.1 µM, respectively.
